According to PMC5653858, “A single extracellular amino acid in Free Fatty Acid Receptor 2 defines antagonist species selectivity and G protein selection bias” (Scientific Reports, 2017):
Residue numbers refer to the chain shown, from its start. Values belong to the compound of their own block, whether it stands above or below them.

Legend:
mFFA2 = target: T1, mFFA2 (Mus musculus, UniProt Q8VCK6); assay: inositol monophosphate accumulation assay, mFFA2; assay type: cell-based; conditions: EC80 concentration of C3, wild type mFFA2
T1 construct: eYFP; expressed in transfected cells; host or cells: Flp-In T-REx HEK293, doxycycline-induced
T1 sequence (Q8VCK6 1-330): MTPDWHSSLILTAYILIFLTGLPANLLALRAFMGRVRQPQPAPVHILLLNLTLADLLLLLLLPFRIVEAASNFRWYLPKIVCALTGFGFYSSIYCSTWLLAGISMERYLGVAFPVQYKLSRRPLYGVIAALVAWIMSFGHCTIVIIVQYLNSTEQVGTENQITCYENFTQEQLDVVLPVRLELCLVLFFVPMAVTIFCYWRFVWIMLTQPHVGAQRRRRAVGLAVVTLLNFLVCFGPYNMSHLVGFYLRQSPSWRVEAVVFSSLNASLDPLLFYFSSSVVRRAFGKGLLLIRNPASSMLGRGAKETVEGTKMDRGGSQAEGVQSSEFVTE
Method: (§1) All cAMP and inositol monophosphate experiments were performed using Flp-In T-REx HEK293 cells induced to express the receptor of interest. Experiments were carried out using respective homogenous time-resolved FRET-based detection kits (CisBio Bioassays; CisBio, Codolet, France) according to the manufacturer’s protocol. For the cAMP inhibition assay cells were plated at 2000 cells/well in low-volume 384-well plates. The ability of agonists to inhibit 1 μM forskolin-induced cAMP production was assessed following a co-incubation for 30 min with agonist compounds. For the inositol monophosphate accumulation assay cells were plated at 7500 cells/well in low-volume 384-well plates and incubated for 2 h at 37 °C with test compounds. To assess ability of antagonists to inhibit agonist responses, cells were pre-incubated with antagonist compounds for 30 min at 37 °C prior to addition of an EC80 concentration of agonist. Respective reactions were stopped according to the manufacturer’s instructions and the output was measured by with a PHERAstar FS plate reader (BMGLabtech, Aylesbury, UK).

Lys^65Arg hFFA2 [1] = target: T2, Lys^65Arg hFFA2 (Homo sapiens, UniProt O15552, K65R); assay: inositol monophosphate accumulation assay, Lys65Arg hFFA2; assay type: cell-based
T2 construct: NanoLuc Luciferase (N); eYFP; expressed in transfected cells; host or cells: Flp-In T-REx HEK293, doxycycline-induced
T2 sequence (O15552 1-330 K65R): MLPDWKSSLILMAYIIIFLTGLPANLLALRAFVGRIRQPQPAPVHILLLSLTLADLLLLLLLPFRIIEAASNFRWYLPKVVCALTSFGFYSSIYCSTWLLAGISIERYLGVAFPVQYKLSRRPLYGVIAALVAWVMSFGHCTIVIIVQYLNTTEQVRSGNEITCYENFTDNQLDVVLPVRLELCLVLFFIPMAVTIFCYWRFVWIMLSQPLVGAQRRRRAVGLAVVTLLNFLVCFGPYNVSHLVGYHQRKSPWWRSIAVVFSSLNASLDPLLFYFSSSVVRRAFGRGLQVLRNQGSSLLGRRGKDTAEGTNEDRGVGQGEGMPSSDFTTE
Method: as §1

bovine FFA2 = test system: bovine FFA2; parameters: method as in Hudson et al., unpublished; conditions: bovine FFA2 has Lys at residue 65; ref Hudson et al., unpublished; cited from earlier work
Lys^65Glu hFFA2 [2] = target: T3, Lys^65Glu hFFA2 (Homo sapiens, UniProt O15552, K65E); assay: inositol monophosphate accumulation assay, Lys65Glu hFFA2; assay type: cell-based
T3 construct: NanoLuc Luciferase (N); eYFP; expressed in transfected cells; host or cells: Flp-In T-REx HEK293, doxycycline-induced
T3 sequence (O15552 1-330 K65E): T2 sequence (O15552 1-330 K65R) with R65E
Method: as §1

Lys^65Ala hFFA2 [3] = target: T4, Lys^65Ala hFFA2 (Homo sapiens, UniProt O15552, K65A); assay: inositol monophosphate accumulation assay, Lys65Ala hFFA2; assay type: cell-based; parameters: NanoLuc Luciferase (N); eYFP; expressed in transfected cells; host or cells: Flp-In T-REx HEK293, doxycycline-induced
T4 sequence (O15552 1-330 K65A): T2 sequence (O15552 1-330 K65R) with R65A
Method: as §1

Lys^65Arg hFFA2 [4] = target: T2, Lys^65Arg hFFA2; parameters: method as in PMID 26991104; conditions: not compatible with current results; cited from earlier work
Arg^65Lys mFFA2 = target: T5, Arg^65Lys mFFA2 (Mus musculus, UniProt Q8VCK6, R65K); assay: inositol monophosphate accumulation assay, Arg65Lys mFFA2; assay type: cell-based; conditions: concentration-dependent
T5 construct: eYFP; expressed in transfected cells
T5 sequence (Q8VCK6 1-330 R65K): T1 sequence (Q8VCK6 1-330) with R65K
Method: as §1

hFFA2 [5] = target: T6, hFFA2 (Homo sapiens, UniProt O15552); assay: inositol monophosphate accumulation assay, wild type hFFA2; assay type: cell-based; parameters: expressed in transfected cells; conditions: against an EC80 concentration of compound 1, wild type hFFA2; read-out: pIC50 to inhibit inositol monophosphate response, WT (converted)
T6 sequence (O15552 1-330): T2 sequence (O15552 1-330 K65R) with R65K
Method: as §1

human neutrophils = conditions: cited from earlier work
Lys^65Ala hFFA2 [6] = target: T4, Lys^65Ala hFFA2; assay: HTRF cAMP inhibition assay, Lys65Ala hFFA2; assay type: cell-based; parameters: NanoLuc Luciferase (N); eYFP; expressed in transfected cells; host or cells: Flp-In T-REx HEK293, doxycycline-induced; conditions: compared to wild type hFFA2
Method: as §1

Lys^65Ala hFFA2 [7] = target: T4, Lys^65Ala hFFA2; assay: bias factor β calculation, Lys65Ala hFFA2 compared to WT; assay type: cell-based; parameters: NanoLuc Luciferase (N); eYFP; expressed in transfected cells; host or cells: Flp-In T-REx HEK293, doxycycline-induced; conditions: Pathway 2 TGFα shedding
Method: (§2) All data are presented as means ± SEM of at least three independent experiments. Data analysis and curve fitting was carried out using the GraphPad Prism software package version 5.0b (GraphPad, San Diego). […] In case of inhibition experiments with antagonists an equivalent analysis was followed to fit an inverse sigmoidal curve. To perform the statistical analysis of curve parameters, data from multiple experiments were fitted independently and resulting curve fit values were analysed with indicated tests. For radioligand binding data, saturation binding curves were generated by fitting the specific binding, which was obtained by subtracting non-specific from total binding, to a one site specific binding model that allows calculation of Kd values for the radioligand at wild type and mutant receptors. To determine affinity of unlabelled ligands, data obtained in displacement assays were fit to an inverse three parameter sigmoidal curve constrained by radioligand affinity and concentration to allow for Ki calculation. To quantify the signaling bias that mutations of hFFA2 show compared to the wild type receptor, bias factor β was calculated by determining the logarithm of the ratio of relative intrinsic activities for a ligand at two different assays[43].

Lys^65Ala hFFA2 [8] = target: T4, Lys^65Ala hFFA2; conditions: compared with loss of potency in inositol monophosphate assays
Method: Membranes were generated from Flp-In T-REx HEK293 cells treated with 100 ng/mL doxycycline to induce expression of receptor of interest. Cells were washed with ice-cold phosphate-buffered saline, removed from dishes by scraping and centrifuged at 3000 rpm for 5 min at 4 °C. Pellets were resuspended in TE buffer (75 mM Tris-HCl, 5 mM EDTA; pH 7.5) containing a protease inhibitor mixture (Roche Applied Science, West Sussex, UK) and homogenized with a 5 ml hand-held homogenizer. This material was centrifuged at 1500 rpm for 5 min at 4 °C and the supernatant was further centrifuged at 50000 rpm for 30 min at 4 °C. The resulting pellet was resuspended in TE buffer and protein content was assessed using a BCA protein assay kit (Pierce, Fisher Scientific, Loughborough, UK).
Binding was initiated by the addition of membranes (5 µg of protein per tube). […] Radioactivity was quantified by liquid scintillation spectrometry.
All data are presented as means ± SEM of at least three independent experiments. […] To perform the statistical analysis of curve parameters, data from multiple experiments were fitted independently and resulting curve fit values were analysed with indicated tests. […]

Lys^65Glu hFFA2 [9] = target: T3, Lys^65Glu hFFA2; assay: HTRF cAMP inhibition assay, Lys65Glu hFFA2; assay type: cell-based; conditions: compared to wild type hFFA2
Method: as §1

[10] = test system: Lys^65 to either Ala or Glu in hFFA2; assay: degree of bias to favor Gi-mediated signalling, Lys65 to either Ala or Glu in hFFA2; assay type: cell-based, human; conditions: vs TGFα shedding
Method: as §2

Lys^65Arg hFFA2 [11] = target: T2, Lys^65Arg hFFA2; assay: bias factor β calculation, Lys65Arg hFFA2 compared to WT; assay type: cell-based; conditions: Pathway 2 TGFα shedding
Method: as §2

hFFA2 [12] = target: T6, hFFA2; assay: TGFα shedding assay, wild type hFFA2; assay type: cell-based; parameters: HA-tag (C); expressed in transfected cells; host or cells: HEK293, parental and CRISPR/Cas9 G protein-deleted lines, transient transfection
Method: A mixture of 250 ng AP-TGFα, 100 ng receptor of interest and 50 ng Gα protein were transfected using polyethyleneimine into one well of HEK293 cells cultured in a 12-well plate. Transfected cells were detached with PBS containing 0.05% trypsin and 0.52 mM EDTA and harvested by centrifugation at 190 × g for 5 min. The cell pellet was resuspended in PBS, followed by an incubation for 15 min at room temperature. After a second centrifugation at 190 × g for 5 min, pelleted cells were resuspended in 4 ml Hank’s Balanced Salt Solution (HBSS) containing 5 mM HEPES (pH7.4) per well in a 12-well plate. The cell suspensions were plated at 90 μl per well in a 96-well plate and incubated at 37 °C with 5% CO2 for 30 minutes. After the equilibration period 10 μl per well of 10× concentration of compounds were added and incubated for 1 h at 37 °C with 5% CO2. Plates were centrifuged at 190 × g for 2 min and 80 μL of supernatant was transferred into another 96-well plate. Solution containing p-NPP (10 mM p-NPP, 40 mM Tris-HCl (pH 9.5), 40 mM NaCl, 10 mM MgCl2) was added at 80 μl per well into supernatant-only plates as well as cell plates. […] Detailed assay development and analysis has been described previously.

Lys^65Glu hFFA2 [13] = target: T3, Lys^65Glu hFFA2; assay: bias factor β calculation, Lys65Glu hFFA2 compared to WT; assay type: cell-based; conditions: Pathway 2 TGFα shedding
Method: as §2

effect on C3-stimulated inositol monophosphate production at mFFA2 (mFFA2): unaffected
ability to block compound 1-mediated elevation of inositol monophosphate accumulation at Lys65Arg hFFA2 (Lys^65Arg hFFA2 [1]; EC80 concentration of compound 1): all but abolished
IC50 (Lys^65Arg hFFA2 [1]; against an EC80 concentration of compound 1, K65R hFFA2, read-out: pIC50 to inhibit inositol monophosphate response, K65R (converted)): > 31600 nM
IC50 (Lys^65Glu hFFA2 [2]; against an EC80 concentration of compound 1, K65E hFFA2, read-out: pIC50 to inhibit inositol monophosphate response, K65E (converted)): > 31600 nM
IC50 (Lys^65Ala hFFA2 [3]; against an EC80 concentration of compound 1, K65A hFFA2, read-out: pIC50 to inhibit inositol monophosphate response, K65A (converted)): 437 nM
antagonism of C3-mediated inositol monophosphate accumulation at Arg65Lys mFFA2 (Arg^65Lys mFFA2): fully antagonize
IC50 (hFFA2 [5]): 19.1 nM
SMILES: O=C(O)C[C@H](Cc1ccc(C(F)(F)F)cc1)NC(=O)Cc1cccc(Cl)c1 [CATPB, (S)-3-(2-(3-chlorophenyl)acetamido)-4-(4-(trifluoromethyl)phenyl)butanoic acid]
binding to bovine FFA2 (bovine FFA2): does not bind CAPTB with high affinity
antagonism of C3 at Lys65Arg hFFA2 (Lys^65Arg hFFA2 [4]): effective and competitive antagonist

SMILES: CC1(C(=O)N(CCCC(=O)O)Cc2cccc(Cl)c2)CCN1C(=O)c1csc2ccccc12 (stereo not shown) [GLPG0974, 4-[[1-(benzo[b]thiophene-3-carbonyl)-2-methylazetidine-2-carbonyl]-(3-chlorobenzyl)amino]butyric acid]
block of chemotaxis of human neutrophils (human neutrophils): effectively blocked chemotaxis of human neutrophils

SMILES: CCC(=O)O [Compound C3, propionate]
loss of agonist potency at Lys65Glu hFFA2 vs wild type, inositol monophosphate accumulation (Lys^65Glu hFFA2 [2]; Glu substitution): greater than 30 fold
maximal effect in cAMP inhibition at Lys65Ala hFFA2 (Lys^65Ala hFFA2 [6]): greater than at wild type hFFA2
loss of agonist potency at Lys65Ala hFFA2 vs wild type, inositol monophosphate accumulation (Lys^65Ala hFFA2 [3]; Ala substitution): greater than 30 fold
β factor (compared to WT) K65A (Lys^65Ala hFFA2 [7]; Pathway 1 GTPγS): 1.78
β factor (compared to WT) K65A (Lys^65Ala hFFA2 [7]; Pathway 1 cAMP): 2.00
ability to compete for binding with [3H]GLPG0974 at Lys65Ala hFFA2 (Lys^65Ala hFFA2 [8]): much less affected
maximal effect in cAMP inhibition at Lys65Glu hFFA2 (Lys^65Glu hFFA2 [9]): greater than at wild type hFFA2
bias to favor Gi-mediated signalling compared to wild type hFFA2, based on [35S]GTPγS binding studies [10]: 41–60 fold
bias to favor Gi-mediated signalling compared to wild type hFFA2, based on cAMP inhibition studies [10]: 100–125 fold
β factor (compared to WT) K65R (Lys^65Arg hFFA2 [11]; Pathway 1 GTPγS): −0.10
β factor (compared to WT) K65R (Lys^65Arg hFFA2 [11]; Pathway 1 cAMP): −0.30
potency in TGFα shedding assay (parental HEK293) higher than in inositol monophosphate accumulation assay (hFFA2 [12]; wild type hFFA2): ~10 fold
TGFα shedding response in HEK293 cells lacking Gαq, Gα11, Gα12, Gα13 (hFFA2 [12]; wild type hFFA2, all four G protein α subunits eliminated): no TGFα shedding response
β factor (compared to WT) K65E (Lys^65Glu hFFA2 [13]; Pathway 1 GTPγS): 1.62
β factor (compared to WT) K65E (Lys^65Glu hFFA2 [13]; Pathway 1 cAMP): 2.10
